Usually IC50 stands for the point on the concentration scale where inhibition reaches its midpoint. One may read the EC50 as the concentration giving half of the maximal effect. A high value points to a need for much substance.

Assay [1] addresses T1, Recombinant Human NF-kappaB-Inducing Kinase (NIK/MAP3K14) (Homo sapiens, UniProt Q99558). Nature of the assay: Biological Assay A2: inhibition of auto-phosphorylation of recombinant human NIK/MAP3K14 (AlphaScreen). The class given is biochemical. The following applies: 0.2 nM GST-tagged NIK, 25 microM ATP, 1 h at 25° C., averaged values. As to the method:
Inhibition of Auto-Phosphorylation of Recombinant Human NF-kappaB-Inducing Kinase (NIK/MAP3K14) Activity (AlphaScreen®)
NIK/MAP3K14 auto-phosphorylation activity was measured using the AlphaScreen® (αscreen) format (Perkin Elmer). All compounds tested were dissolved in dimethyl sulfoxide (DMSO) and further dilutions were made in assay buffer. Final DMSO concentration was 1% (v/v) in assays. Assay buffer was 50 mM Tris pH 7.5 containing 1 mM EGTA (ethylene glycol tetraacetic acid), 1 mM DTT (dithiothreitol), 0.1 mM Na3VO4, 5 mM MgCl2, 0.01% Tween® 20. Assays were carried out in 384 well Alphaplates (Perkin Elmer). Incubations consisted of compound, 25 microM Adenosine-5′-triphosphate (ATP), and 0.2 nM NIK/MAP3K14. Incubations were initiated by addition of GST-tagged NIK/MAP3K14 enzyme, carried out for 1 h at 25° C. and terminated by addition of stop buffer containing anti-phospho-IKK Ser176/180 antibody. Protein A Acceptor and Glutathione-Donor beads were added before reading using an EnVision® Multilabel Plate Reader (Perkin Elmer). Signal obtained in the wells containing blank samples was subtracted from all other wells and IC50's were determined by fitting a sigmoidal curve to % inhibition of control versus Log10 compound concentration.
A general note: In Alpha technology, singlet oxygen from a donor bead excites a nearby acceptor bead.

The next assay relates to JJN-3 cells. Nature of the assay: Biological Assay C: antiproliferative activity on JJN-3 cells (CellTiter-Glo). The class given is cell-based, human. Conditions: Homo sapiens, JJN-3, 72 h, 72 hr treatment, averaged values. The procedure:
(§1) Determination of Antiproliferative Activity on LP-1, L-363 and JJN-3 Cells
(§2) All compounds tested were dissolved in DMSO and further dilutions were made in culture medium. Final DMSO concentration was 0.3% (v/v) in cell proliferation assays. Viability was assessed using CellTiter-Glo cell viability assay kit (Promega). The human LP-1, L-363 and JJN-3 cells (DSMZ) were cultured in RPMI 1640 medium supplemented with 2 mM L-glutamine, and 10% fetal calf serum (PAA). Cells were routinely kept as suspension cells at 37° C. in a humidified 5% CO2 atmosphere. Cells were passaged at a seeding density of 0.2×10^6/ml twice a week. Cells were seeded in black tissue culture treated 96-well plates (Perkin Elmer). Densities used for plating ranged from 2,000 to 6,000 cells per well in a total volume of 75 μl medium. After twenty four hours, drugs and/or solvents were added (25 μl) to a final volume of 100 μl. Following 72 hr of treatment plates were removed from the incubator and allowed to equilibrate to room temperature for approx 10 min. 100 ut CellTiter-Glo reagent was added to each well that was then covered (Perkin Elmer Topseal) and shaken on plate shaker for 10 min. Luminescence was measured on a HTS Topcount (Perkin Elmer). Within an experiment, the results for each treatment were the mean of 2 replicate wells. For initial screening purposes, compounds were tested using a 9 point dilution curve (serial 1:3 dilutions). For each experiment, controls (containing no drug) and a blank incubation (containing cells read at the time of compound addition) were run in parallel. The blank value was subtracted from all control and sample values. For each sample, the mean value for cell growth (in relative light units) was expressed as a percentage of the mean value for cell growth of the control.
In general terms: ATP-based viability assays read luminescence as a measure of living cells.

For assay [2], the target named is T1, Recombinant Human NF-kappaB-Inducing Kinase (NIK/MAP3K14). Nature of the assay: Biological Assay A: inhibition of recombinant human NIK/MAP3K14 activity (MSD, MBP substrate). The following applies: 10 nM NIK, 25 μM ATP, 1 h at 25° C.; averaged over all measurements on all batches; read-out: Biochemical (MSD IC50). As to the method: Inhibition of Recombinant Human NF-kappaB-Inducing Kinase (NIK/MAP3K14) Activity Assay buffer was 50 mM Tris pH 7.5 containing 1 mM EGTA (ethylene glycol tetraacetic acid), 1 mM DTT (dithiothreitol), 0.1 mM Na3VO4, 5 mM MgCl2, 0.01% Tween® 20. Assays were carried out in 384 well Mesoscale high binding plates which had been coated with myelin basic protein (MBP) and blocked with bovine serum albumin to prevent non-specific protein binding. All compounds tested were dissolved in dimethyl sulfoxide (DMSO) and further dilutions were made in assay buffer. Final DMSO concentration was 1% (v/v) in assays. Incubations consisted of compound (1% DMSO in control and blank wells), 25 μM Adenosine-5′-triphosphate (ATP), and 10 nM NIK/MAP3K14 substituting enzyme with buffer in the blank wells. Incubations were carried out for 1 h at 25° C. and were followed by washing and sequential incubation with rabbit anti-phospho-MBP and anti-rabbit Ig Sulfotag antibody before reading bound Sulfotag on a Mesoscale Discovery. Signal obtained in the wells containing blank samples was subtracted from all other wells and ICso's were determined by fitting a sigmoidal curve to % inhibition of control versus Log10 compound concentration.

The next assay has as its system L-363 cells. Nature of the assay: Biological Assay C: antiproliferative activity on L-363 cells (CellTiter-Glo). In kind it is cell-based, human. Conditions: Homo sapiens, L-363, 72 h, 72 hr treatment, averaged values. The procedure: as §1, §2
Assay [3] concerns P-IKKα levels in L363 cells. The assay can be described thus: Biological Assay B: effect of compounds on P-IKKα levels in L363 cells. The class given is cell-based. The following applies: Homo sapiens, L-363, BAFF stimulated, 2 hr treatment, averaged values, read-out: IKKα Cellular IC50. The procedure:
Effect of Compounds on P-IKKα Levels in L363 Cells
All compounds tested were dissolved in DMSO and further dilutions were made in culture medium. Final DMSO concentration was 1% (v/v) in cell assays. The human L363 cells (ATCC) were cultured in RPMI 1640 medium supplemented with GlutaMax and 10% fetal calf serum (PAA). Cells were routinely maintained at densities of 0.2×10^6 cells per ml—1×10^6 cells per ml at 37° C. in a humidified 5% CO2 atmosphere. Cells were passaged twice a week splitting back to obtain the low density. Cells were seeded in 96 well plates (Nunc 167008) at 2×10^6 per ml media in a volume of 75 μl per well plus 25 μl 1 μg/ml recombinant human B-cell activating factor (BAFF/BLyS/TNFSF13B). Seeded cells were incubated at 37° C. in a humidified 5% CO2 atmosphere for 24 hr. Drugs and/or solvents were added (20 μl) to a final volume of 120 μl. Following 2 hr treatment plates were removed from the incubator and cell lysis was achieved by the addition of 30 μl 5× lysis buffer followed by shaking on a plate shaker at 4° C. for 10 min. At the end of this incubation lysed cells were centrifuged at 800×g for 20 min at 4° C. and the lysate was assessed for P-IKKα levels by sandwich immuno-assay carried out in anti-rabbit antibody coated Mesoscale plates. Within an experiment, the results for each treatment were the mean of 2 replicate wells. For initial screening purposes, compounds were tested using an 8 point dilution curve (serial 1:3 dilutions). For each experiment, controls (containing MG132 and BAFF but no test drug) and a blank incubation (containing MG132 and BAFF and 10 μM ADS125117, a test concentration known to give full inhibition) were run in parallel. The blank incubation value was subtracted from all control and sample values. To determine the IC50 a sigmoidal curve was fitted to the plot of % inhibition of control P-IKKα levels versus Log10 compound concentration.

For a further assay, the system named is LP-1 cells. The assay can be described thus: Biological Assay C: antiproliferative activity on LP-1 cells (CellTiter-Glo). The class given is cell-based, human. Conditions: Homo sapiens, LP-1, 72 h, 72 hr treatment, averaged values. The procedure:
as §1, §2

T1 sequence (Q99558 whole entry): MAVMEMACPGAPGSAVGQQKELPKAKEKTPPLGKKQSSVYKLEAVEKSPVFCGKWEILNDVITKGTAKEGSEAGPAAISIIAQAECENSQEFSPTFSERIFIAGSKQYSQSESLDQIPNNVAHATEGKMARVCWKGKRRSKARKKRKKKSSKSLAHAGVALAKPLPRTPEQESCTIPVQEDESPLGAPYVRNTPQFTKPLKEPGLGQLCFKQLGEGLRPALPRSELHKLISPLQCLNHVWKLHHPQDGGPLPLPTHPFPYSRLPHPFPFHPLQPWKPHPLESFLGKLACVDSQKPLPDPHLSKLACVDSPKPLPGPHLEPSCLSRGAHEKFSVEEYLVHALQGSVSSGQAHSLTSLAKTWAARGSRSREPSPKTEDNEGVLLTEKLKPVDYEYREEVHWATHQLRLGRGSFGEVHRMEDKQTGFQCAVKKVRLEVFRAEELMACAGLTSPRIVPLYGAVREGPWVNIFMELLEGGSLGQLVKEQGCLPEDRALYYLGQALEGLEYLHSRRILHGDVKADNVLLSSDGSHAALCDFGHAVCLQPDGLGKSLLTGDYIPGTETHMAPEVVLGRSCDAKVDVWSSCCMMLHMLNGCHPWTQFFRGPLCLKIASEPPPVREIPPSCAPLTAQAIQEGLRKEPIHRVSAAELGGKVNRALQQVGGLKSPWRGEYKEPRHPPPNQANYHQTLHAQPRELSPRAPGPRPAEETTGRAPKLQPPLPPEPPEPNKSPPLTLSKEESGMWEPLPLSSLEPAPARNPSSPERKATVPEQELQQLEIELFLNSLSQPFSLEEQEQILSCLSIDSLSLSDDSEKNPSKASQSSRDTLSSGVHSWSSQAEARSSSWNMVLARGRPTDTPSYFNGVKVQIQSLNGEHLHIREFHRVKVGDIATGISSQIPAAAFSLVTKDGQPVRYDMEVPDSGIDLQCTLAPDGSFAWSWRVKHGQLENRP

As for `CC(C)(O)C#Cc1ccc2[nH]cc(-c3cn[nH]c3)c2c1` [Compound 1], the IC50 in assay [1] came to 22 nM; in assay [2], 28 nM; in assay [3] it was 122 nM. Also, the EC50 in the assay on JJN-3 cells was found to be 432 nM; in the assay with L-363 cells, 245 nM; in the assay with LP-1 cells it was 320 nM.
In the case of `CCn1cc(-c2c[nH]nc2N)c2cc(C#CC(C)(C)O)ccc21` [Compound 2], the figures for the IC50 in assay [1], in assay [2] and in assay [3] were 43 nM, 44 nM and 87 nM, respectively. Further, the figures for the EC50 in the assay with JJN-3 cells, in the assay on L-363 cells and with LP-1 cells were 733 nM, 990 nM and 1420 nM, respectively.
With `CCn1cc(-c2c[nH]nc2C)c2cc(C#CC(C)(C)O)ccc21` [Compound 3], the IC50 in assay [1] turned out to be 35 nM; in assay [2] it was 71 nM; in assay [3], 139 nM. The results for the EC50 with JJN-3 cells, with L-363 cells and in the assay on LP-1 cells were 1860 nM, 3120 nM and 3160 nM, respectively.
For `CCn1cc(-c2c[nH]nc2C(F)(F)F)c2cc(C#CC(C)(C)O)ccc21` [Compound 4], the IC50 in assay [1] is 350 nM; in assay [2], 581 nM.
On to `CC(C)(O)C#Cc1ccc2c(c1)c(-c1cn[nH]c1)cn2CC1CCOC1` (centres unmarked) [Compound 5], for which the IC50 in assay [1] was 25 nM; in assay [2] it was 38 nM; in assay [3], 145 nM. Moreover, the EC50 with JJN-3 cells is 1410 nM; in the assay on L-363 cells it was 1830 nM; in the assay with LP-1 cells, 1890 nM.
With `CC(C)(O)C#Cc1ccc2c(c1)c(-c1cn[nH]c1)cn2CC1COC1` [Compound 6], the IC50 in assay [1] worked out at 66 nM; in assay [2], 6 nM; in assay [3] it was 73 nM. Further, the EC50 with JJN-3 cells is 1080 nM; in the assay with L-363 cells it was 704 nM; in the assay with LP-1 cells, 1950 nM.
On to `COCCn1cc(-c2cn[nH]c2)c2cc(C#CC(C)(C)O)ccc21` [Compound 7], for which the figures for the IC50 in assay [1], in assay [2] and in assay [3] were 73 nM, 11 nM and 175 nM, respectively. The figures for the EC50 in the assay with JJN-3 cells, with L-363 cells and with LP-1 cells were 1410 nM, 1180 nM and 2180 nM, respectively.
Regarding `CC(C)n1cc(-c2cn[nH]c2)c2cc(C#CC(C)(C)O)ccc21` [Compound 8], the IC50 in assay [1] was 14 nM; in assay [2], 13 nM; in assay [3] it was 18 nM. For the same compound, the EC50 with JJN-3 cells came out at 218 nM; in the assay on L-363 cells, 221 nM; in the assay with LP-1 cells it was 219 nM.
As for `CCn1cc(-c2cn[nH]c2)c2cc(C#CC(C)(C)O)ccc21` [Compound 9], the IC50 stood at 43 nM in assay [1], 8 nM in assay [2] and 54 nM in assay [3]. Further, the EC50 is 418 nM in the assay with JJN-3 cells, 332 nM with L-363 cells and 298 nM in the assay on LP-1 cells.
In the case of `CC(C)(O)C#Cc1ccc2c(c1)c(-c1cn[nH]c1)cn2CC(C)(C)O` [Compound 10], the IC50 in assay [1] came out at 110 nM; in assay [2], 38 nM; in assay [3], 111 nM. For the same compound, the EC50 is 723 nM with JJN-3 cells, 759 nM with L-363 cells and 947 nM with LP-1 cells.
For the compound `CC(C)(O)C#Cc1ccc2c(c1)c(-c1cn[nH]c1)cn2CCO` [Compound 11], the IC50 worked out at 65 nM in assay [1], 16 nM in assay [2] and 83 nM in assay [3]. The figures for the EC50 in the assay with JJN-3 cells, with L-363 cells and in the assay with LP-1 cells were 394 nM, 340 nM and 483 nM, respectively.
As to `Cn1cc(-c2cn[nH]c2)c2cc(C#CC(C)(C)O)ccc21` [Compound 12], the values for the IC50 in assay [1], in assay [2] and in assay [3] were 65 nM, 41 nM and 38 nM, respectively. In addition, the EC50 was determined as 754 nM in the assay with JJN-3 cells, 700 nM in the assay on L-363 cells and 769 nM in the assay on LP-1 cells.
On to `CC(O)(C#Cc1ccc2[nH]cc(-c3cn[nH]c3)c2c1)c1nccs1` (centres unmarked) [Compound 13], for which the IC50 in assay [1] was 7 nM; in assay [2] it was 9 nM; in assay [3], 16 nM. The EC50 in the assay with JJN-3 cells was 704 nM; in the assay with L-363 cells it was 5520 nM; in the assay on LP-1 cells, 9910 nM.
As for `OC1(C#Cc2ccc3[nH]cc(-c4cn[nH]c4)c3c2)CCCC1` [Compound 14], the IC50 in assay [1] was 28 nM; in assay [2] it was 30 nM; in assay [3], 300 nM. Besides, the figures for the EC50 in the assay on JJN-3 cells, with L-363 cells and in the assay on LP-1 cells were 2200 nM, 4050 nM and 5440 nM, respectively.

For the origin of these results see patent US9981962B2, “Pyrazole derivatives as NIK inhibitors” (Janssen Pharmaceutica NV, priority 2014, dated 2018).
